Test system: C6-IRG1-9 rat glioma cells
Experiment: C6-IRG1-9 rat glioma cell proliferation, CyQuant
Format: cell-based
Details: various concentrations, 48 hrs
Method: Tumor Cell Proliferation Assay. This assay was used to assess the anti-tumor properties of a therapeutic agent in vitro. In a typical proliferation assay, cells were cultured to near confluency in the appropriate media. Subsequently, the cells were trypsinized and plated onto 96-well plates at 2,000 or 5,000 cell per well. The cells were cultured for 48 to 96 hours in the presence or absence of the therapeutic agent. Cell proliferation was then determined using spectrophotometry (MTT assay, BrdU assay) or fluorimetry (Cyquant assay).
Inhibition of C6-IRG1-9 Rat Glioma cell proliferation. C6-IRG1-9 cells are rat C6 glioma cells that have been transfected to overexpress IRG1. Overexpression of IRG1 is maintained by culturing the cells in DMEM media containing 0.55 μg/mL puromycin. For the proliferation assays, the cells were plated onto a 96-well plate at a density of 2,000 cells/well. The cells were allowed to adhere overnight; they were subsequently treated with various concentrations of compounds of Formula (2) for 48 hrs. At the end of the incubation period, the number of cells is assessed using the CyQuant Cell Proliferation kit (Thermo Fisher) according to the manufacturer's instructions. The results, shown in FIG. 3, indicate that compounds of Formula (2) are able to reduce or abrogate growth of C6-IRG1-9 cells. In FIG. 3, cell proliferation is expressed as % Untreated Control, defined as: […]
where t is the number of cells present in a treated well at the end of the incubation period, c is the number of cells present in an untreated well at the end of the incubation period, and s is the initial number of cells in the wells prior to initiation of treatment.

Row | SMILES | proliferation of C6-IRG1-9 rat glioma cells
1 | O=C(O)CC(=Cc1ccccc1)C(=O)O [(4), 2-(phenylmethylidene)butanedioic acid] | inhibition of proliferation
2 | C=CCC(C(=O)O)/C(=C/c1ccc(F)cc1)C(=O)O (stereo not shown) [(7), 2-[(4-flurophenyl)methylidene]-3-(prop-2-ene-1-yl)butanedioic acid] | inhibition of proliferation
3 | O=C(O)CC(=Cc1ccc(F)cc1)C(=O)O [Compound (5), 2-[(4-fluorophenyl)methylidene]butanedioic acid] | inhibition of proliferation
4 | CC(C)=C(CC(=O)O)C(=O)O [(3), 2-(propan-2-ylidene)butanedioic acid] | inhibition of proliferation

— US20210261495A1, “COMPOSITIONS AND METHODS OF USING ITACONIC ACID DERIVATIVES” (ERGON PHARMACEUTICALS, LLC, priority 2018, published 2021)
